The values that follow come from patent US7285282B2, “Mucin peptide with immunoenhancing properties” (University of Miami, priority 2001, dated 2007).

The test system of one data set is DA-3/sec targets. The data set is described as follows: Effect of perforin inhibitor or anti-Fas antibody on killing by DA-3/sec primed splenocytes. To be noted: FIG. 14, FIG. 15. The class given is cell-based, mice.
The subject of the next data set is YAC-1. The data set is described as follows: NK cell assay, splenocytes pretreated with IEP, YAC-1 targets. Format: cell-based, BALB/c mice. The note with it: 10 μg IEP, 30-45 minutes pretreatment, 4-hour assay, FIG. 18. The source says:
As mentioned above, there is a unique 11 amino acid peptide present on the C-terminus of the MUC1/sec protein, but not on the MUC1/TM protein. […] We investigated the possible effects of the peptide on the cytotoxicity reaction. We tested it on yet another tumor model, i.e. the D1-DMBA-3 mammary tumor bearing mice. The DA-3 cell line was originally derived from this tumor, which is routinely passaged in vivo in our laboratory in the syngeneic BALB/c mice. […] The ability of this peptide to stimulate immune cells in a NK cell assay was tested. […] Therefore, to test for immunomodulatory activity of the immunoenhancing peptide (IEP), BALB/c splenocytes were pretreated for 30-45 minutes with 10 μg IEP and subsequently, chromium-labeled YAC-1 or EL-4 targets were added in a 4-hour assay as previously described (11).

For another data set, the system named is DA-3/sec tumor targets. The data set is described as follows: Splenocyte cytotoxicity against DA-3/sec targets after in vitro MUC1/sec peptide. To be noted: peptide added in vitro for 5 days to splenocytes of normal and D1-DMBA-3 tumor bearing mice, FIG. 17. Format: cell-based.
Data set [1] can be described thus: Toxicity in animals injected with the peptide. The note with it: in vivo.

Where no end group is shown, it is not given here.

`C/C=C/[C@H]1O[C@@](O)([C@@H](C)[C@H](O)[C@H](C)[C@H]2OC(=O)/C(OC)=C/C(C)=C/[C@@H](C)[C@@H](O)[C@@H](CC)[C@@H](O)[C@H](C)C/C(C)=C/C=C/[C@@H]2OC)C[C@@H](O[C@H]2C[C@@H](O)[C@H](OC(N)=O)[C@@H](C)O2)[C@@H]1C` [Concanamycin A]: the “Effect on killing of DA-3/sec targets by primed splenocytes” value in the data set with DA-3/sec targets was “effectively blocked killing of DA-3/sec targets in a dose-dependent manner”.

Regarding VSIGLSFPMLP [IEP], the “Cytotoxicity of normal splenocytes against YAC-1” value with YAC-1 is listed as “elevation of cytotoxic levels”. Besides, the “Cytotoxicity against DA-3/sec tumor targets” value in the data set with DA-3/sec tumor targets is listed as “significant levels of cytotoxicity”. For the same compound, the “Toxicity in injected animals” value in data set [1] was “No toxicity has been detected”.
